Broadly, the Papp is the rate of passage across a membrane or cell layer, normalised by area and donor concentration. What is called fraction unbound is free concentration divided by total concentration. A high value points to weak binding.

Molecules are shown by their SMILES.

Data set [1] can be described thus: Drug concentration in total skeletal muscle in Wistar Han rat at 1 to 2 mg/kg, iv infused for 10 to 20 hrs by LC-MS/MS analysis. As to conditions: in vivo.
Data set [2] can be described thus: Apparent permeability of the compound across dog RRCK cells by MDCK-LE assay.
Data set [3] in a line: Fraction unbound in Wistar Han rat liver at 2 uM incubated for 6 hrs by equilibrium dialysis method.
A short description of data set [4]: Fraction unbound in Wistar Han rat plasma at 2 uM incubated for 6 hrs by equilibrium dialysis method. In general terms: In equilibrium dialysis free small molecules cross a membrane that holds back macromolecules.
Data set [5] in a line: Fraction unbound in Wistar Han rat heart at 2 uM incubated for 6 hrs by equilibrium dialysis method.
Data set [6] in a line: Drug concentration in total liver in Wistar Han rat at 1 to 2 mg/kg, iv infused for 10 to 20 hrs by LC-MS/MS analysis. As to conditions: in vivo.
The nature of data set [7]: Drug concentration in total brain in Wistar Han rat at 1 to 2 mg/kg, iv infused for 10 to 20 hrs by LC-MS/MS analysis. The settings on record: in vivo.
A short description of data set [8]: Unbound tissue partition coefficient, ratio of drug level in liver to plasma in Wistar Han rat at 1 to 2 mg/kg, iv infused for 10 to 20 hrs by LC-MS/MS analysis. The settings on record: liver/plasma.
Data set [9] is described as follows: Total plasma concentration in Wistar Han rat at 1 to 2 mg/kg, iv infused for 10 to 20 hrs by LC-MS/MS analysis. As to conditions: in vivo.
The nature of data set [10]: Fraction unbound in Wistar Han rat brain at 2 uM incubated for 6 hrs by equilibrium dialysis method.
Data set [11] is described as follows: Unbound tissue partition coefficient, ratio of drug level in skeletal muscle to plasma in Wistar Han rat at 1 to 2 mg/kg, iv infused for 10 to 20 hrs by LC-MS/MS analysis. As to conditions: skeletal muscle/plasma.
Data set [12] is described as follows: Unbound tissue partition coefficient, ratio of drug level in adipose to plasma in Wistar Han rat at 1 to 2 mg/kg, iv infused for 10 to 20 hrs by LC-MS/MS analysis. The settings on record: adipose/plasma.
Data set [13] can be described thus: Unbound tissue partition coefficient, ratio of drug level in heart to plasma in Wistar Han rat at 1 to 2 mg/kg, iv infused for 10 to 20 hrs by LC-MS/MS analysis. The settings on record: heart/plasma.
Data set [14] is described as follows: Unbound tissue partition coefficient, ratio of drug level in brain to plasma in Wistar Han rat at 1 to 2 mg/kg, iv infused for 10 to 20 hrs by LC-MS/MS analysis. The settings on record: brain/plasma.
A short description of data set [15]: Fraction unbound in Wistar Han rat skeletal muscle at 2 uM incubated for 6 hrs by equilibrium dialysis method.
Data set [16] in a line: Drug concentration in total heart in Wistar Han rat at 1 to 2 mg/kg, iv infused for 10 to 20 hrs by LC-MS/MS analysis. As to conditions: in vivo.
Data set [17] in a line: Fraction unbound in Wistar Han rat white adipose tissue at 2 uM incubated for 6 hrs by equilibrium dialysis method.
Data set [18] is described as follows: Drug concentration in total white adipose tissue in Wistar Han rat at 1 to 2 mg/kg, iv infused for 10 to 20 hrs by LC-MS/MS analysis. As to conditions: in vivo.

As to `O=C(O)[C@@H]1CCN(C(=O)n2cnc(-c3ccc(-c4cnc(N5CCOCC5)nc4)cc3)n2)[C@@H](c2ccccc2)C1`, the Ct in data set [1] is 20 ng/mL; in data set [6] it was 1.5 ng/mL; in data set [7], 0.38 ng/mL; in data set [16], 80 ng/mL; in data set [18], 0.77 ng/mL. Further, in [2], the apparent permeability coefficient (Papp) was found to be 17 ×10⁻⁶ cm/s. For the same compound, the free fraction (fraction unbound) at 6 h, 2 µM in [3] came out at 0.00824; in data set [4], 0.00353; in data set [5], 0.0159; in data set [10], 0.00874; in data set [15], 0.017; in [17], 0.165. The Kp uu in [8] stood at 0.037; in data set [11] it was 1.1; in data set [12], 0.024; in data set [13], 4.2; in data set [14], 0.0018. In addition, the Cp in [9] was 88 ng/mL.
Take `CC(=O)NS(=O)(=O)c1ccc(Oc2ccc(F)c(Cl)c2)c(C(F)(F)F)c1`: the Ct in data set [1] is 24 ng/mL; in [6], 1.4 ng/mL; in data set [7], 4.4 ng/mL; in [16], 103 ng/mL; in [18], 14 ng/mL. In addition, the apparent permeability coefficient (Papp) in data set [2] turned out to be 35 ×10⁻⁶ cm/s. The fraction unbound at 6 h, 2 µM in data set [3] is 0.0598; in data set [4], 0.00426; in data set [5], 0.0329; in [10], 0.0319; in [15], 0.0581; in data set [17], 0.229. Besides, the Kp uu is 0.033 in data set [8]; 0.72 in [11]; 1.6 in data set [12]; 1.8 in [13]; 0.074 in data set [14]. The same compound came in with a Cp in [9] of 450 ng/mL.
Regarding `O=C(c1cccc(N2CCNCC2)n1)N1CCC(c2ccccc2F)CC1`, the Ct in data set [1] was found to be 170 ng/mL; in data set [6] it was 960 ng/mL; in data set [7], 14 ng/mL; in data set [16], 410 ng/mL; in data set [18] it was 28 ng/mL. The Papp in data set [2] amounted to 24 ×10⁻⁶ cm/s. Also, the unbound share (fraction unbound) at 6 h, 2 µM was 0.0394 in data set [3]; 0.0995 in data set [4]; 0.057 in data set [5]; 0.0227 in data set [10]; 0.0483 in data set [15]; 0.393 in data set [17]. For the same compound, the Kp uu in [8] came out at 9.4; in [11], 2; in data set [12], 2.4; in data set [13], 5.3; in data set [14], 0.078. This compound also displayed a Cp in [9] of 42 ng/mL.
`N#Cc1ccc(N2N=C(N3CCC(C(=O)N4CCC(O)CC4)CC3)C[C@H]2C2CCCC2)cc1Cl`: the Ct in data set [1] amounted to 150 ng/mL; in data set [6], 1000 ng/mL; in data set [7], 16 ng/mL; in [16], 550 ng/mL; in data set [18], 120 ng/mL. In data set [2], the Papp stood at 20 ×10⁻⁶ cm/s. Moreover, the fraction unbound at 6 h, 2 µM was 0.00991 in [3]; 0.00962 in [4]; 0.00283 in [5]; 0.00431 in data set [10]; 0.00952 in data set [15]; 0.109 in [17]. In addition, the Kp uu in data set [8] stood at 4.3; in data set [11], 0.59; in data set [12], 5.9; in [13], 0.68; in data set [14], 0.029. In addition, in [9], the Cp worked out at 240 ng/mL.
With `CC(C)(CC1Cc2ccccc2C1)NC[C@@H](O)COc1cc(C2CC3CC2C2C(C(=O)O)C32)ccc1C#N` (some centres not stated), the Ct in data set [1] was determined as 16 ng/mL; in data set [6], 400 ng/mL; in data set [7] it was 1 ng/mL; in data set [16], 86 ng/mL; in data set [18], 4.7 ng/mL. Besides, in data set [2], the apparent permeability coefficient (Papp) was 5.3 ×10⁻⁶ cm/s. Moreover, the fraction unbound at 6 h, 2 µM in [3] stood at 0.00258; in data set [4], 0.0104; in data set [5], 0.00108; in data set [10] it was 0.00176; in data set [15], 0.00211; in data set [17], 0.0322. The Kp uu in [8] is 2.2; in [11], 0.08; in data set [12], 0.36; in data set [13], 0.19; in [14], 0.0025. In [9], this compound returned a Cp of 54 ng/mL.
As to `COCCCN1C[C@H](C)N(C(=O)N2Cc3c(NC(=O)c4ccccn4)n[nH]c3C2(C)C)C[C@H]1C`, the Ct in [1] stood at 68 ng/mL; in data set [6], 170 ng/mL; in [7], 3.4 ng/mL; in data set [16] it was 110 ng/mL; in data set [18], 27 ng/mL. Besides, in data set [2], the Papp was 21 ×10⁻⁶ cm/s. Further, the unbound share (fraction unbound) at 6 h, 2 µM in data set [3] is 0.375; in data set [4] it was 0.614; in data set [5], 0.341; in [10] it was 0.0796; in [15] it was 0.385; in [17] it was 0.329. Further, the Kp uu in [8] came to 3.8; in data set [11], 1.5; in [12] it was 0.51; in [13], 2.2; in data set [14], 0.015. The Cp in data set [9] turned out to be 30 ng/mL.
For the compound `Cc1ccc(CC(C)(C)NC[C@@H](O)CO[C@H](C)c2ccccc2-c2ccc(C(=O)O)c(C)c2)cc1F`, the Ct in [1] came to 17 ng/mL; in data set [6] it was 220 ng/mL; in data set [7], 0.38 ng/mL; in data set [16] it was 56 ng/mL; in data set [18], 8 ng/mL. The apparent permeability coefficient (Papp) in data set [2] was found to be 4.4 ×10⁻⁶ cm/s. For the same compound, the unbound share (fraction unbound) at 6 h, 2 µM in [3] turned out to be 0.0134; in data set [4], 0.00353; in data set [5], 0.0129; in [10] it was 0.0111; in [15], 0.021; in data set [17], 0.126. Besides, the Kp uu in data set [8] turned out to be 7.1; in data set [11], 0.85; in [12], 2.5; in data set [13], 1.8; in data set [14] it was 0.0018. In addition, the Cp in [9] was 120 ng/mL.
As for `COc1ccc2ncc(F)c([C@@H](O)CC[C@@H]3CCN(CCSc4cccs4)C[C@@H]3C(=O)O)c2c1`, the Ct was 33 ng/mL in [1]; 350 ng/mL in data set [6]; 0.69 ng/mL in data set [7]; 77 ng/mL in data set [16]; 5.4 ng/mL in [18]. Besides, in data set [2], the Papp worked out at 9.8 ×10⁻⁶ cm/s. Moreover, the unbound share (fraction unbound) at 6 h, 2 µM stood at 0.191 in [3]; 0.19 in data set [4]; 0.15 in data set [5]; 0.0945 in data set [10]; 0.132 in data set [15]; 0.672 in [17]. Further, the Kp uu in data set [8] came out at 4.5; in data set [11], 0.29; in [12], 0.26; in data set [13], 0.75; in data set [14], 0.0032. The same compound gave a Cp in data set [9] of 79 ng/mL.
In the case of `Cc1nc([C@@H]2CCOC2)c2c(N3CCc4c(c(C5CC5)nn4C)C3)ncnn12`, the Ct was determined as 75 ng/mL in [1]; 380 ng/mL in data set [6]; 52 ng/mL in data set [7]; 110 ng/mL in [16]; 270 ng/mL in data set [18]. The Papp in data set [2] came out at 30 ×10⁻⁶ cm/s. Moreover, the fraction unbound at 6 h, 2 µM in data set [3] turned out to be 0.195; in data set [4] it was 0.178; in [5], 0.171; in data set [10] it was 0.103; in data set [15] it was 0.23; in data set [17], 0.101. Also, the Kp uu worked out at 6.2 in data set [8]; 1.5 in data set [11]; 2.3 in [12]; 1.7 in data set [13]; 0.46 in [14]. Also, the Cp in [9] worked out at 66 ng/mL.

The record behind these values is ChEMBL document CHEMBL4373746, “Structural attributes influencing unbound tissue distribution” (Eur J Med Chem, 2020).
